The values below are quoted from earlier work in patent publication US20210386978A1, “Drug Delivery Devices and Systems for Local Drug Delivery to the Upper Urinary Tract” (TARIS Biomedical LLC, priority 2018, published 2021).

Structures can show the parent of a compound that is named as a salt.

The conditions of this data set: solubility terms in the same block are defined in water at 37° C.

In the case of `Nc1ccn([C@@H]2O[C@H](CO)[C@@H](O)C2(F)F)c(=O)n1` [gemcitabine base], the approximate solubility is on record as ~15 mg/mL.

`Nc1ccn([C@@H]2O[C@H](CO)[C@@H](O)C2(F)F)c(=O)n1` [gemcitabine HCl]: the approximate solubility was ~80 mg/mL.

`O=C(O[C@H]1C[C@H]2CC[C@@H](C1)[N+]21CCCC1)C(O)(c1ccccc1)c1ccccc1` [trospium chloride]: the approximate solubility is ~500 mg/mL.

In the case of `Cc1ccc(O)c([C@H](CCN(C(C)C)C(C)C)c2ccccc2)c1` [tolterodine tartrate], the approximate solubility is reported as ~12 mg/mL.
